In series [1] the test system is human whole blood. Description: Inhibition of platelet aggregation (method of Born, collagen instead of ADP as pro-aggregatory agent; pA2 by Arunlakshana and Schild). Type of series: cell-based. The settings on record: tested at a concentration of 2 pg/ml. An excerpt: As indicated above, our tests have shown that compounds of formula (1) inhibit blood platelet aggregation and/or have bronchodilatatory activity. The test we have used for bronchodilatation is as described by K.M. Lulich, et al in British Journal of Pharmacology 58, 71-79, (1976) except guinea-pig lung is used instead of cat lung. The test for inhibition of platelet aggregation is as described by G.V. Born in Nature 194, 927-929 (1962) except collagen is used instead of ADP as the pro-aggregatory agent.
The following compounds were tested at a concentration of 2 pg/ml for their ability to inhibit the aggregation of human whole blood according to the method of G V Born in Nature 194, 927-929 (1962) except collagen was used instead of ADP as the pro-aggregatory agent. pA2 values were determined using the standard procedures of Arunlakshana and Schild in Br J Pharmac Chemother, 14, 48-58 (1959): […]

For series [2], the system named is dogs. Kind of series: Toxicity, oral administration to dogs. The class given is in vivo. Particulars: given orally to dogs at a dose of 1 mg/kg. An excerpt:
The compounds are in general non-toxic at therapeutically useful doses.

Series [3] deals with guinea-pig lung. Kind of series: Potential bronchodilatation (method of Lulich et al., guinea-pig lung instead of cat lung; pA2 by Arunlakshana and Schild). Type of series: cell-based. Particulars: tested at concentrations between 2 x 10^-7 to 2x10^-5 mole/litre; for Kb: Cavia porcellus.

With `COc1ccc(-c2ccc(COC3CC(=O)C(N4CCOCC4)C3CC=CCCCC(=O)O)cc2)cc1` (racemic) [11a), [1α(Z),2β,5α]-(±)-7-[5-[[4'-Methoxy(1,1'-biphenyl)-4-yl]methoxy]-2-(4-morpholinyl)-3-oxocyclopentyl]-5-heptenoic acid], in series [1], the Kb was 15.8 nM. Besides, the adverse effects entry in series [2] is “no adverse effects”.

Usually pA2 stands for the negative logarithm of the molar antagonist concentration that doubles the agonist concentration needed for the same response. Low readings indicate lower antagonist potency, high ones higher antagonist potency. `Cc1ccc(-c2ccc(COC3CC(=O)C(N4CCOCC4)C3CCCCCCC(=O)O)cc2)cc1` (racemic) [18a), (1α,2β,5α)-(±)-5-[[4'-Methyl(1,1'-biphenyl)-4-yl]methoxy]-2-(4-morpholinyl)-3-oxocyclopentaneheptanoic acid]: in series [3], the pA2 was determined as 8.6.

Regarding `O=C(O)CCCC=CCC1C(OCc2ccc(Cc3ccccc3)cc2)CC(=O)C1N1CCOCC1` (racemic) [11b), 1α(Z),2β,5α]-(±)-7-[2-(4-Morpholinyl)-3-oxo-5-[[4-(phenylmethyl)phenyl]methoxy]cyclopentyl]-5-heptenoic acid], the Kb in series [1] is 39.8 nM.

Regarding `O=C(O)CCCC=CCC1C(OCc2ccc(-c3ccc(-c4ccccc4)cc3)cc2)CC(=O)C1N1CCOCC1` (racemic) [Example 11c), [1α(Z),2β,5α]-(±)-7-[2-(4-Morpholinyl)-3-oxo-5-[[(1,1';4.1"-terphenyl)-4-yl]methoxy]cyclopentyl]-5-heptenoic acid], the adverse effects result in series [2] was “no adverse effects”.

As to `Cc1ccc(-c2ccc(COC3CC(=O)C(N4CCOCC4)C3CC=CCCCC(=O)O)cc2)cc1` (racemic) [Example 5a), [1α(Z),2β,5α-(±)-7-[5-[[4'-Methyl(1,1'-biphenyl)-4-yl]methoxy]-2-(4-morpholinyl)-3-oxocyclopentyl]-5-heptenoic acid], in series [1], the Kb is 15.8 nM.

As for `O=C(O)CCCC=CCC1C(OCc2ccc(-c3cccs3)cc2)CC(=O)C1N1CCOCC1` (racemic) [5f), [1α(Z),2β,5α]-(±)-7-[2-(4-Morpholinyl)-3-oxo-5-[4-(thien-2-yl)phenylmethoxy]cyclopentyl]-5-heptenoic acid], the Kb in series [1] is 44.7 nM.

The compound `O=C(O)CCCC=CCC1C(OCc2ccc(Cc3ccccc3)cc2)CC(=O)C1N1CCS(=O)(=O)CC1` (racemic) [11i), [1α(Z),2β,5α]-(±)-7-[3-Oxo-5-[4-(phenylmethyl)-phenylmethoxy]-2-(4-thiomorpholinyl)cyclopentyl]-5-heptenoic acid, S-dioxide] gave a Kb in series [3] of 3.16 nM.

With `COc1ccc(-c2csc(COC3CC(O)C(N4CCOCC4)C3CC=CCCCC(=O)O)c2)cc1` (racemic) [Example 10b), [1α(Z),2β,3α,5α]-(±)-7-[3-Hydroxy-5-[[4-(4-methoxyphenyl)thien-2-yl]methoxy]-2-(4-morpholinyl)cyclopentyl]-5-heptenoic acid], the Kb in series [3] is 1 nM.

The compound `COc1ccc(-c2ccc(COC3CC(=O)C(N4CCOCC4)C3CCCCCCC(=O)O)cc2)cc1` (racemic) [18d), (1α,2β,5α)-(±)-5-[[-4'-Methoxy(1,1'-biphenyl)-4-yl]-2-(4-morpholinyl)-3-oxocyclopentaneheptanoic acid] came in with a pA2 in series [3] of 8.9.

As to `O=C(O)CCCC=CCC1C(OCc2ccc(Cc3ccccc3)cc2)CC(=O)C1N1CCCCC1` (racemic) [Example 11f), [1α(Z),2β,5α]-(±)-7-[3-Oxo-5-[4-(phenylmethyl)phenylmethoxy]-2-(1-piperidinyl)cyclopentyl]-5-heptenoic acid], in series [2], the adverse effects result is recorded as “no adverse effects”.

For the compound `COc1ccc(-c2ccc(COC3CC(=O)C(N4CCCCC4)C3CC=CCCCC(=O)O)cc2)cc1` (racemic) [11e), [1α(Z),2β,5α]-(±)-7-[5-[[4'-Methoxy(1,1'biphenyl)-4-yl]methoxy]-3-oxo-2-(1-piperidinyl)cyclopentyl]-5-heptenoic acid], the Kb in series [3] is 1.58 nM.

In series [3], `Cc1ccc(-c2ccc(COC3CC(=O)C(N4CCCCC4)C3CC=CCCCC(=O)O)cc2)cc1` (racemic) [11g), [1α(Z),2β,5α]-(±)-7-[5-[[4'-Methyl(1,1'-biphenyl)-4-yl]ntethoxy]-3-oxo-2-(1-piperidinyl)cyclopentyl]-5-heptenoic acid] had a Kb of 3.16 nM.

The values above are taken from patent publication EP0032432A1, “Prostanoid compounds and their preparation and pharmaceutical formulations” (GLAXO GROUP LIMITED, priority 1980, dated 1981).
